# In patent US20060276537A1, “Use of ladostigil for the treatment of multiple sclerosis” (priority 2005, published 2006):
# Read-outs that look alike come from different tables or passages of the source.
# What was measured:
# [1] = system: chronic progressive EAE induced by pMOG35-55 in C57BL/6 mice; experiment: MOG-induced chronic progressive EAE in C57BL/6 mice, clinical scoring; format: in vivo; details: gavage once daily from day 0; for % Inhibition: vs control group mean score
# Method: MOG (Myelin oligodendrocyte glycoprotein) is a member of the immunoglobulin superfamily expressed exclusively in CNS myelin. It is one of the most encephalitogenic proteins and is widely used to induce EAE in different rodent strains. In C57BL/6 mice, immunization with the MOG peptide pMOG35-55 in CFA induces chronic progressive EAE. Ladostigil was tested in this model in order to assess its ability to inhibit the disease.
# EAE was induced by subcutaneous injection of encephalitogenic emulsion at a volume of 0.2 ml/mouse in the right flank. On the day of induction, pertussis toxin was injected intraperitoneally at a volume dose of 0.2 ml/mouse. The injection of the pertussis toxin was repeated after 48 hours. At the end of the experiment, 6-7 brains from control and the ladostigil groups were dissected and frozen at −70° C. for CHE (cholinesterase) determination and 6-7 brains were dissected and frozen for MAO (monoamine oxidase) determination. Before sacrifice, blood for ChE determination was taken on heparine, hemolysed 1/20 in 10 mM cold phosphate buffer pH=6.0 and stored at −70° C. until the assay.
# 90 female C57Bl/6 mice 8-10 weeks old obtained from Harlan animal breeding center were used in the study. Mice were allocated randomly into 6 groups:
# Both compounds were administered by gavage once daily during the whole experiment (30 days) at a volume of 0.2 ml/mouse.
# The mice were observed daily from the 10th day post-EAE induction and the EAE clinical signs were scored. The scores were recorded on observation cards according to the grades described in Table 5:
# The number of sick animals (animals with a score of ≧1 at any point) in each group was summed.
# The incidence of disease and the % activity were calculated as follows: [formula] [formula] [formula]
# The maximal scores of all mice in each group were summed.
# The mean maximal score and the % activity of the group were calculated as follows: [formula] [formula] [formula]
# The individual scores (IMS) of each of the mice during the observation period were summed (score 6 will be counted forward).
# The GMS of the group and its % activity were calculated as follows: [formula] [formula] [formula]
# Their dates of onset were calculated as day of termination +1.
# [2] = biological target: T1, butyrylcholinesterase (BChE) (Mus musculus, UniProt Q03311); experiment: Cholinesterase assay (modified Ellman, BTC substrate) in brain and blood of treated EAE mice; format: in vivo; details: for Brain BuChE U/g: results on the limit of assay sensitivity; for inhibition at 10.2 mg/kg / inhibition at 25.5 mg/kg / inhibition at 51 mg/kg / inhibition at 70.1 mg/kg: mouse
# T1 construct: Homogenate of 100 mg brain tissue in 1 ml 100 mM phosphate buffer pH=8.0 was prepared; from tissue; host or cells: brain homogenate and blood hemolysate of ladostigil-treated EAE mice
# T1 sequence (Q03311 30-603): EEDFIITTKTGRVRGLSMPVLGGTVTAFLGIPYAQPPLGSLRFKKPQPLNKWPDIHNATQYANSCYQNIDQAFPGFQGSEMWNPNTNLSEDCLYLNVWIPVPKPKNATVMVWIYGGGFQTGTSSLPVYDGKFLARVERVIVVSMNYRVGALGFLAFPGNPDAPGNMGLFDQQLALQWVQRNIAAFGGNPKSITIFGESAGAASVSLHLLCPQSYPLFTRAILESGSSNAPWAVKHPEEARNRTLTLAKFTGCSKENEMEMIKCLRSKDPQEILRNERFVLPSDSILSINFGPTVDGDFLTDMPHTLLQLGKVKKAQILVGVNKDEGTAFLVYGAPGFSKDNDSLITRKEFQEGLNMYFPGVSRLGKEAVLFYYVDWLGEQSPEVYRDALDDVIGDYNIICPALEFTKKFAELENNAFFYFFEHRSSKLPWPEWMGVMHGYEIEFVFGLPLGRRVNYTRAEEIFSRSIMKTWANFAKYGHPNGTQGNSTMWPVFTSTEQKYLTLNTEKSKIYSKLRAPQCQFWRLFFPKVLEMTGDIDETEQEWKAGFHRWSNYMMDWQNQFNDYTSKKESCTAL
# Method: From the mice of Example 2, acetylcholinesterase (AChE) and butyrylcholinesterase (BChE) activities were determined by a modification of Ellman's spectophotometric method using acetyltiocholine (ATC) and butyryltiocholine (BTC) as substrates.
# Homogenate of 100 mg brain tissue in 1 ml 100 mM phosphate buffer pH=8.0 was prepared. 0.4 ml of crude homogenate was added to 1.2 ml pre-warmed 4 mM 5,5′-Dithiobis(2-nitrobenzoic acid) (DTNB or Ellman's reagant); 30 μl from this mixture were added to 210 μl pre-warmed (28° C.) 50 mM phosphate buffer in a microplate; and the reaction was started by addition of 10 μl ATC or BTC (final concentration=1 mM) or water (for the blank reaction) The increase in optical density (OD) at 412 nm was monitored for 3 minutes and the slope of the straight line obtained by linear regression provided the activity in terms of ΔOD/min using SOFTMAX® software. Blank reaction was subtracted.
# Conversion of ΔOD/min into Enzyme Activity was Performed as Follows: Unit enzyme/gram tissue=OD/min*0.25/10.54*4*1000/30*11
# The same procedure was performed as with brain homogenate using 50 μl of ¼ hemolysate/DTNB mixture.
# Enzyme activity in the blood was calculated in units/1 ml whole blood.
# BuChE activity was calculated directly from the ΔOD/min of BTC.
smiles,measurement,setting,value
"C#CCN[C@@H]1CCc2ccc(OC(=O)N(C)CC)cc21 [Ladostigil, R(+)-6-(N-methyl,N-ethyl-carbamoyloxy)-N′-propargyl-1-aminoindan]",Group Mean Score,[1]; ladostigil salt 10.2 mg/kg,2.75 ± 1.3
same,Incidence,[1]; ladostigil salt 10.2 mg/kg,15/15
same,Mean Maximal Score,[1]; ladostigil salt 10.2 mg/kg,4.33 ± 1.1
same,Mean Onset,[1]; ladostigil salt 10.2 mg/kg,12.0 ± 2.4 days
same,Mortality,[1]; ladostigil salt 10.2 mg/kg,2/15
same,% Inhibition,[1]; ladostigil salt 10.2 mg/kg,9.5%
same,Group Mean Score,[1]; ladostigil salt 25.5 mg/kg,3.08 ± 1.4
same,Incidence,[1]; ladostigil salt 25.5 mg/kg,15/15
same,Mean Disease Duration,[1]; ladostigil salt 25.5 mg/kg,35.3 ± 8.8 days
same,Mean Maximal Score,[1]; ladostigil salt 25.5 mg/kg,4.33 ± 1.0
same,Mean Onset,[1]; ladostigil salt 25.5 mg/kg,11.6 ± 2.1 days
same,Mortality,[1]; ladostigil salt 25.5 mg/kg,3/15
same,% Inhibition,[1]; ladostigil salt 25.5 mg/kg,−1.3%
same,Group Mean Score,[1]; ladostigil salt 51 mg/kg,2.26 ± 1.1
same,Incidence,[1]; ladostigil salt 51 mg/kg,15/15
same,Mean Disease Duration,[1]; ladostigil salt 51 mg/kg,31.3 ± 13.2 days
same,Mean Maximal Score,[1]; ladostigil salt 51 mg/kg,3.83 ± 1.1
same,Mean Onset,[1]; ladostigil salt 51 mg/kg,11.4 ± 3.1 days
same,Mortality,[1]; ladostigil salt 51 mg/kg,1/15
same,% Inhibition,[1]; ladostigil salt 51 mg/kg,25.7%
same,Incidence,[1]; ladostigil salt 70.1 mg/kg,15/15
same,Mean Maximal Score,[1]; ladostigil salt 70.1 mg/kg,3.73 ± 1.0
same,Mean Onset,[1]; ladostigil salt 70.1 mg/kg,11.6 ± 2.3 days
same,Mortality,[1]; ladostigil salt 70.1 mg/kg,1/15
same,% Inhibition,[1]; ladostigil salt 70.1 mg/kg,33.2%
same,BChE inhibition,"[2]; 51 and 70.1 mg/kg/day, brain and blood",35-42%
same,Blood BuChE U/ml,"[2]; blood of EAE mice, 10.2 mg/kg salt",1.52 +/− 0.24 U/ml
same,Blood BuChE U/ml,"[2]; blood of EAE mice, 25.5 mg/kg salt",1.47 +/− 0.18 U/ml
same,Blood BuChE U/ml,"[2]; blood of EAE mice, 51 mg/kg salt",1.06 +/− 0.21 U/ml
same,Blood BuChE U/ml,"[2]; blood of EAE mice, 70.1 mg/kg salt",1.01 +/− 0.18 U/ml
same,Brain BuChE U/g,"[2]; brain of EAE mice, 10.2 mg/kg salt",0.35 +/− 0.04 U/g
same,Brain BuChE U/g,"[2]; brain of EAE mice, 25.5 mg/kg salt",0.31 +/− 0.04 U/g
same,Brain BuChE U/g,"[2]; brain of EAE mice, 51 mg/kg salt",0.22 +/− 0.03 U/g
same,Brain BuChE U/g,"[2]; brain of EAE mice, 70.1 mg/kg salt",0.25 +/− 0.06 U/g
same,inhibition at 10.2 mg/kg,"[2]; blood of EAE mice, 10.2 mg/kg salt, read-out: Blood BchE % inhibition",6.7%
same,inhibition at 25.5 mg/kg,"[2]; blood of EAE mice, 25.5 mg/kg salt, read-out: Blood BchE % inhibition",10.1%
same,inhibition at 51 mg/kg,"[2]; blood of EAE mice, 51 mg/kg salt, read-out: Blood BchE % inhibition",35.3%
same,inhibition at 70.1 mg/kg,"[2]; blood of EAE mice, 70.1 mg/kg salt, read-out: Blood BchE % inhibition",38.4%
same,inhibition at 10.2 mg/kg,"[2]; brain of EAE mice, 10.2 mg/kg salt, read-out: Brain BchE % inhibition",7.9%
same,inhibition at 25.5 mg/kg,"[2]; brain of EAE mice, 25.5 mg/kg salt, read-out: Brain BchE % inhibition",18.4%
same,inhibition at 51 mg/kg,"[2]; brain of EAE mice, 51 mg/kg salt, read-out: Brain BchE % inhibition",42.1%
same,inhibition at 70.1 mg/kg,"[2]; brain of EAE mice, 70.1 mg/kg salt, read-out: Brain BchE % inhibition",34.2%
